Measured values taken from US20150274777A1, “KETOAMIDE IMMUNOPROTEASOME INHIBITORS” (HOFFMANN-LA ROCHE INC., priority 2012, published 2015).

Tests used:
[1] = tested on: β2c/2i; experiment: Cell-Based Proteasome Activity/Selectivity Assay (Ramos cells), substrate (KQL)2Rh110; details: highest concentration tested 20 μM
From the text: (§1) Cell-Based Proteasome Activity/Selectivity Assay
(§2) The Cell-Based Proteasome subunit activity/selectivity assay was a panel of 5 fluorogenic assays that independently measured the activity of β5c or β5i (chymotrypsin-like activity), β2c/2i (trypsin-like), and β1c or β1i (caspase-like) protease activity associated with the proteasome complex in cultured cells. Specifically, the following substrates were used for respective subunit activities: β1i: (PAL)2Rh110, β1c: (LLE)2 Rh110, β2c/2i: (KQL)2Rh110, β5c: (WLA)2Rh110, β5i: (ANW)2Rh110. The following procedure was followed:
(§3) Cell preparation: Plated 25 μl of Ramos cells (2×10^6/ml in DPBS) into half area plate (PerkinElmer Cat 6005569) to final 5×10^4 cells/well. Added 0.5 μl of 100×4-fold serial diluted test compounds or DMSO to each well. Highest concentration of compound tested was 20 μM, thus compound serial dilution started from […]. Incubated for 30 minutes at 37° C. Then equilibrated at room temperature for 15 minutes. Added 25 μl of 2× reaction mix consisting of 0.025% digitonin, 20 μM of each substrates and 0.5M sucrose in DPBS. Shaked for one minute @ 700 rpm. Incubated for 120 min at room temperature. Then read the plates with an Envision multilabel plate reader (PerkinElmer) with 500 nm excitation/519 nm emission.

[2] = molecular target: T1, β5i (Homo sapiens, UniProt P20618+P28062); experiment: Cell-Based Proteasome Activity/Selectivity Assay (Ramos cells), substrate (ANW)2Rh110; details: highest concentration tested 20 μM, read-out: Ic50 ramos:ac-(anw)2-r110
T1 construct: protease activity associated with the proteasome complex in cultured cells; endogenous in cells; host or cells: Ramos cells
From the text: as §1, §2, §3

[3] = tested on: IP10 level in PBMCs stimulated with CpG Type A; experiment: PBMC IP-10 Assay; format: cell-based; details: CpG Type A 2.5 μM
Procedure: PBMCs were isolated from whole blood as follows: Blood was collected in a sterile environment in heparinized tubes. Blood was diluted with an equal volume PBS/2% FCS and 30 ml of this mixture was added to ACCUSPIN tubes containing 15 ml Histopaque-1077 already centrifuged at 800 g for 30 seconds and warmed up at room temperature. The tubes were then centrifuged at 800 g for 20 minutes at room temperature with no brake. The mononuclear band, just above the polyethylene frit, was removed by Pasteur pipet. These mononuclear cells were washed three times with sterile PBS, counted, and resuspended in RPMI 1640 supplemented with 10% heat inactivated fetal calf serum, 10 mM HEPES, 1 mM sodium pyruvate, penicillin (50 U/ml), streptomycin (50 μg/ml) and glutamine (2 mM) to approximately 1.5×10^6/ml. Approximately 2×10^5 cells/well were plated in 96 well tissue culture plates (BD Falcon 353072), and preincubated 60 mi/37° C. with a titration of compounds, in a final concentration of 1% DMSO. Cells were then stimulated with CpG Type A (Invivogen, Cat #tlrl-2216; ODN 2216) at a final concentration of 2.5 μM. Cells were incubated overnight, and supernatants were removed. PBMC viability of cells remaining in the well was measured with ATPlite luminescence assay (Perkin-Elmer) per the manufacturer's instructions. Luminescence was measured on the Perkin-Elmer Envision, using the luminescence filter. IP10 level was measured with CXCL10/IP10 AlphaLISA kit (Perkin-Elmer) per the manufacturer's instructions, except halving all volumes. Fluorescence was measured on the Envision Multilabel plate reader, using the AlphaScreen standard settings.

[4] = molecular target: T2, β1c (Homo sapiens, UniProt P28072+Q99436); experiment: Cell-Based Proteasome Activity/Selectivity Assay (Ramos cells), substrate (LLE)2 Rh110; details: highest concentration tested 20 μM
T2 construct: protease activity associated with the proteasome complex in cultured cells; endogenous in cells; host or cells: Ramos cells
From the text: as §1, §2, §3

[5] = molecular target: T3, β5c (Homo sapiens, UniProt P20618+P28074); experiment: Cell-Based Proteasome Activity/Selectivity Assay (Ramos cells), substrate (WLA)2Rh110; details: highest concentration tested 20 μM
T3 construct: protease activity associated with the proteasome complex in cultured cells; endogenous in cells; host or cells: Ramos cells
From the text: as §1, §2, §3

[6] = molecular target: T4, β1i (Homo sapiens, UniProt P28065+P40306); experiment: Cell-Based Proteasome Activity/Selectivity Assay (Ramos cells), substrate (PAL)2Rh110; details: highest concentration tested 20 μM
T4 construct: protease activity associated with the proteasome complex in cultured cells; endogenous in cells; host or cells: Ramos cells
From the text: as §1, §2, §3

Structure (SMILES): C[C@H](NC(=O)c1ccnn1C)C(=O)N[C@@H](Cc1c[nH]c2ccccc12)C(=O)N[C@@H](Cc1ccccc1)C(=O)C(=O)NCc1ccccc1 [Example 30, 2-Methyl-2H-pyrazole-3-carboxylic acid {(S)-1-[(S)-1-((S)-1-benzyl-2-benzylcarbamoyl-2-oxo-ethylcarbamoyl)-2-(1H-indol-3-yl)-ethylcarbamoyl]-ethyl}-amide]
- IC50 [1]: 10000 nM
- IC50 [2]: 47 nM
- EC50 [3]: 4090 nM
- IC50 [4]: 12500 nM
- IC50 [5]: 2480 nM
- IC50 [6]: 569 nM

Structure (SMILES): CNC(=O)C(=O)[C@H](Cc1ccccc1)NC(=O)[C@H](Cc1c[nH]c2ccccc12)NC(=O)[C@H](C)NC(=O)OCc1ccccc1 [Example 31, {(S)-1-[(S)-1-((S)-1-Benzyl-2-methylcarbamoyl-2-oxo-ethylcarbamoyl)-2-(1H-indol-3-yl)-ethylcarbamoyl]-ethyl}-carbamic acid benzyl ester]
- IC50 [1]: > 20000 nM
- IC50 [2]: 34 nM
- EC50 [3]: 1180 nM
- IC50 [4]: 13100 nM
- IC50 [5]: 738 nM
- IC50 [6]: 244 nM

Structure (SMILES): C[C@H](NC(=O)OCc1ccccc1)C(=O)N[C@@H](Cc1c[nH]c2ccccc12)C(=O)N[C@@H](Cc1ccccc1)C(=O)C(=O)NC1CC1 [Example 32, {(S)-1-[(S)-1-((S)-1-Benzyl-2-cyclopropylcarbamoyl-2-oxo-ethylcarbamoyl)-2-(1H-indol-3-yl)-ethylcarbamoyl]-ethyl}-carbamic acid benzyl ester]
- IC50 [1]: > 20000 nM
- IC50 [2]: 11 nM
- EC50 [3]: 940 nM
- IC50 [4]: 12200 nM
- IC50 [5]: 365 nM
- IC50 [6]: 266 nM

Structure (SMILES): COCCNC(=O)C(=O)[C@H](Cc1ccccc1)NC(=O)[C@H](Cc1c[nH]c2ccccc12)NC(=O)[C@H](C)NC(=O)OCc1ccccc1 [Example 33, {(S)-1-[(S)-1-[(S)-1-Benzyl-2-(2-methoxy-ethylcarbamoyl)-2-oxo-ethylcarbamoyl]-2-(1H-indol-3-yl)-ethylcarbamoyl]-ethyl}-carbamic acid benzyl ester]
- IC50 [1]: > 20000 nM
- IC50 [2]: 14 nM
- EC50 [3]: 1380 nM
- IC50 [4]: 17500 nM
- IC50 [5]: 597 nM
- IC50 [6]: 205 nM

Structure (SMILES): C[C@H](NC(=O)OCc1ccccc1)C(=O)N[C@@H](Cc1c[nH]c2ccccc12)C(=O)N[C@@H](Cc1ccccc1)C(=O)C(=O)NCc1ccccn1 [Example 34, {(S)-1-[(S)-1-{(S)-1-Benzyl-2-oxo-2-[(pyridin-2-ylmethyl)-carbamoyl]-ethylcarbamoyl}-2-(1H-indol-3-yl)-ethylcarbamoyl]-ethyl}-carbamic acid benzyl ester]
- IC50 [1]: > 20000 nM
- IC50 [2]: 10 nM
- EC50 [3]: 1160 nM
- IC50 [4]: 13500 nM
- IC50 [5]: 1090 nM
- IC50 [6]: 589 nM

Structure (SMILES): COc1ccc(C[C@H](NC(=O)[C@H](C)NC(=O)CN2CCOc3ccccc32)C(=O)N[C@@H](Cc2ccccc2)C(=O)C(=O)NCc2ccccc2)cc1 [Example 35, (S)—N-Benzyl-3-[(S)-2-[(S)-2-(2-2,3-dihydro-benzo[1,4]oxazin-4-yl-acetylamino)-propionylamino]-3-(4-methoxy-phenyl)-propionylamino]-2-oxo-4-phenyl-butyramide]
- IC50 [1]: > 20000 nM
- IC50 [2]: 4 nM
- EC50 [3]: 615 nM
- IC50 [4]: 13400 nM
- IC50 [5]: 261 nM
- IC50 [6]: 395 nM

Structure (SMILES): CC(C)C[C@H](NC(=O)[C@H](C)NC(=O)OCc1ccccc1)C(=O)N[C@@H](Cc1ccccc1)C(=O)C(=O)NCc1ccccc1 [Example 36, {(S)-1-[(S)-1-((S)-1-Benzyl-2-benzylcarbamoyl-2-oxo-ethylcarbamoyl)-3-methyl-butylcarbamoyl]-ethyl}-carbamic acid benzyl ester]
- IC50 [1]: > 20000 nM
- IC50 [2]: 62 nM
- EC50 [3]: 2800 nM
- IC50 [4]: > 20000 nM
- IC50 [5]: 973 nM
- IC50 [6]: 359 nM

Structure (SMILES): CC(C)C[C@H](NC(=O)[C@H](C)NC(=O)c1ccnn1C)C(=O)N[C@@H](Cc1ccccc1)C(=O)C(=O)NCc1ccccc1 [Example 37, 2-Methyl-2H-pyrazole-3-carboxylic acid {(S)-1-[(S)-1-((S)-1-benzyl-2-benzylcarbamoyl-2-oxo-ethylcarbamoyl)-3-methyl-butylcarbamoyl]-ethyl}-amide]
- IC50 [1]: > 20000 nM
- IC50 [2]: 234 nM
- EC50 [3]: 5100 nM
- IC50 [4]: > 20000 nM
- IC50 [5]: 4440 nM
- IC50 [6]: 1080 nM

Structure (SMILES): C[C@H](NC(=O)OCc1ccccc1)C(=O)N[C@@H](Cc1c[nH]c2ccccc12)C(=O)N[C@@H](Cc1ccccc1)C(=O)C(=O)N(C)Cc1ccccc1 [Example 38, {(S)-1-[(S)-1-[(S)-1-Benzyl-2-(benzyl-methyl-carbamoyl)-2-oxo-ethylcarbamoyl]-2-(1H-indol-3-yl)-ethylcarbamoyl]-ethyl}-carbamic acid benzyl ester]
- IC50 [1]: > 20000 nM
- IC50 [2]: 1210 nM
- EC50 [3]: 10100 nM
- IC50 [4]: > 20000 nM
- IC50 [5]: 4110 nM
- IC50 [6]: > 20000 nM

Structure (SMILES): COc1ccc(C[C@H](NC(=O)[C@H](C)NS(=O)(=O)c2ccccc2)C(=O)N[C@@H](Cc2ccccc2)C(=O)C(=O)NCc2ccccc2)cc1 [Example 39, (S)-3-[(S)-2-((S)-2-Benzenesulfonylamino-propionylamino)-3-(4-methoxy-phenyl)-propionylamino]-N-benzyl-2-oxo-4-phenyl-butyramide]
- IC50 [1]: > 20000 nM
- IC50 [2]: 29 nM
- EC50 [3]: 2320 nM
- IC50 [4]: > 20000 nM
- IC50 [5]: 1380 nM
- IC50 [6]: 605 nM

Structure (SMILES): COc1ccc(C[C@H](NC(=O)[C@H](C)NS(=O)(=O)c2ccccc2C)C(=O)N[C@@H](Cc2ccccc2)C(=O)C(=O)NCc2ccccc2)cc1 [Example 40, (S)—N-Benzyl-3-{(S)-3-(4-methoxy-phenyl)-2-[(S)-2-(toluene-2-sulfonylamino)-propionylamino]-propionylamino}-2-oxo-4-phenyl-butyramide]
- IC50 [1]: > 20000 nM
- IC50 [2]: 46 nM
- EC50 [3]: 1830 nM
- IC50 [4]: 14700 nM
- IC50 [5]: 1290 nM
- IC50 [6]: 1140 nM

Structure (SMILES): COc1ccc(C[C@H](NC(=O)[C@H](C)NC(=O)CCc2ccnn2C)C(=O)N[C@@H](Cc2ccccc2)C(=O)C(=O)NCc2ccccc2)cc1 [Example 41, (S)—N-Benzyl-3-((S)-3-(4-methoxy-phenyl)-2-{(S)-2-[3-(2-methyl-2H-pyrazol-3-yl)-propionylamino-]propionylamino}-propionylamino)-2-oxo-4-phenyl-butyramide]
- IC50 [1]: > 20000 nM
- IC50 [2]: 26 nM
- EC50 [3]: 1500 nM
- IC50 [4]: 18400 nM
- IC50 [5]: 385 nM
- IC50 [6]: 697 nM

Structure (SMILES): C[C@H](NC(=O)C1Cc2ccccc2C1)C(=O)N[C@@H](CCc1ccccc1)C(=O)N[C@@H](Cc1ccccc1)C(=O)C(=O)NCc1ccccc1 [Example 42, Indan-2-carboxylic acid {(S)-1-[(S)-1-((S)-1-benzyl-2-benzylcarbamoyl-2-oxo-ethylcarbamoyl)-3-phenyl-propylcarbamoyl]-ethyl}-amide]
- IC50 [1]: > 20000 nM
- IC50 [2]: 4 nM
- EC50 [3]: 379 nM
- IC50 [4]: 18100 nM
- IC50 [5]: 14 nM
- IC50 [6]: 968 nM

Structure (SMILES): C[C@H](NC(=O)C1Cc2ccccc2C1)C(=O)N[C@@H](Cc1ccccc1)C(=O)N[C@@H](Cc1ccccc1)C(=O)C(=O)NCc1ccccc1 [Example 43, Indan-2-carboxylic acid {(S)-1-[(S)-1-((S)-1-benzyl-2-benzylcarbamoyl-2-oxo-ethylcarbamoyl)-2-phenyl-ethylcarbamoyl]-ethyl}-amide]
- IC50 [1]: > 20000 nM
- IC50 [2]: 3 nM
- EC50 [3]: 784 nM
- IC50 [4]: 18300 nM
- IC50 [5]: 192 nM
- IC50 [6]: 257 nM
